From patent US7025958B2, “Use of amidoamines to treat or prevent acanthamoeba and fungal infections” (Alcon, Inc., priority 2000, dated 2006)

Columns and labels:
Type in all cases: cell-based
[1] = system: Acanthamoeba polyphaga cysts (ATCC 30871); experiment: Dose/response of survivors, Acanthamoeba polyphaga cysts in Mueller Hinton Broth
Procedure: (§1) A 0.1% stock solution of Compound No. 4 was prepared. The compound was dissolved in TRIS buffer^1 by gently heating and swirling. The final pH was adjusted to 7.8 with 1N HCl. […] To prepare the samples, a 0.1% stock solution of Compound No. 4 was serially diluted in Mueller Hinton Broth (MHB)^2,3 (BBL) to provide concentrations of 0.01 w/v %, 0.001 w/v %, 0.0001 w/v %, and 0.00001 w/v %, respectively. Solutions containing 0.02 w/v % polyhexamethylene biguanide (PHMP) and 0.1 w/v % chlorhexidine, respectively, were also utilized as controls.
The samples were inoculated with low levels (approximately 3.0×10^2 organisms/mL) of the test organism. The test organism was Acanthamoeba polyphaga cysts (ATCC 30871) produced 14 days in. PYG and then 14 days in Page's saline, followed by one month of refrigeration. The samples were checked for survivors at 4, 24, and 48 hours post inoculation. The samples were serially diluted in Dey-Engley neutralizing broth (DE) (Difco) and plated in quadruplicate in tissue culture plate wells containing non-nutrient agar overlaid with E. coli. Plates were sealed and incubated for 14 days at 30-35° C. Results were recorded and counts calculated using the Reed and Muench computation.

[2] = system: C. albicans ATCC 10231; experiment: Dose/response of survivors against fungi, C. albicans
Procedure: as §1, with “provide solutions containing Compound No. 4 in” for “provide”, “PHMB” for “polyhexamethylene biguanide (PHMP)”, “were” for “were also”
(§2) The samples were inoculated with low levels (approximately 1.0×10^3 organisms/mL) of the test organism. The test organisms included the fungi C. albicans ATCC 10231 and F. solani ATCC 36031. The samples were checked for survivors at 4, 24, and 48 hours post inoculation. The samples were serially diluted in Dey Engley neutralizing broth (DE) (Difco) and plated in duplicate using trypicase soy agar containing 0.07% asolectin and 0.5% Tween 80. The plates were incubated for 5 days at 20-25° C. and plate counts recorded.

[3] = system: F. solani ATCC 36031; experiment: Dose/response of survivors against fungi, F. solani
Procedure: as §1, with “provide solutions containing Compound No. 4 in” for “provide”, “PHMB” for “polyhexamethylene biguanide (PHMP)”, “were” for “were also”
as §2

[4] = system: Acanthamoeba Strain 1501-3D (NNA cysts); experiment: Minimum cysticidal concentration, strain 1501-3D; conditions: 24 hours exposure at 32° C.
Procedure: (§3) Two different vehicles were utilized to prepare solutions containing Compound No. 4. The first vehicle was the same as the vehicle described in Formulation No. 4 (see Example 2, above), and the second vehicle was a 2 mM TRIS. HCl solution (pH 7.8).
(§4) Minimum cysticidal levels of Compound No. 4 for Acanthamoeba keratitis strains was determined as follows. Briefly, 100 μl serial, two-fold dilutions were prepared across the rows of a microtitre plate. Control wells received only diluent. An equal volume of five strains of Acanthamoba cysts were added to the wells and the plates sealed and incubated at 32° C. for 24 hours. Using a multi-channel pipette, the solutions in the wells were removed and replaced with 200 μl of ¼ strength Lactated Ringer's solution and left at room temperature for 15 minutes. The washing procedure was repeated twice more before finally filling the wells with 100 μl of ¼ strength Lactated Ringer's solution containing live E. coli at an O.D.540 of 0.2. The plates were then sealed and incubated at 32° C. for up to 7 days.
(§5) The MCC values for Compound No. 4 and chlorhexidine against the five Acanthamoeba strains (NNA cysts) tested are set forth in Table 4, below.

[5] = system: Acanthamoeba Strain Uni Tap Water 1501-3D (NNA cysts); experiment: Minimum cysticidal concentration, strain Uni Tap Water 1501-3D; conditions: 24 hours exposure at 32° C.
Procedure: as §3, §4, §5

[6] = system: Acanthamoeba Strain 1501-2g (NNA cysts); experiment: Minimum cysticidal concentration, strain 1501-2g; conditions: 24 hours exposure at 32° C.
Procedure: as §3, §4, §5

[7] = system: Acanthamoeba Strain Ros (NNA cysts); experiment: Minimum cysticidal concentration, strain Ros; conditions: 24 hours exposure at 32° C.
Procedure: as §3, §4, §5

[8] = system: Acanthamoeba Strain Watson (NNA cysts); experiment: Minimum cysticidal concentration, strain Watson; conditions: 24 hours exposure at 32° C.
Procedure: as §3, §4, §5

[9] = 0.00001% Compound No. 4, 0 hours
[10] = 0.00001% Compound No. 4, 4 hours
[11] = 0.00001% Compound No. 4, 24 hours
[12] = 0.00001% Compound No. 4, 48 hours
[13] = 0.0001% Compound No. 4, 0 hours
[14] = 0.0001% Compound No. 4, 4 hours
[15] = 0.0001% Compound No. 4, 24 hours
[16] = 0.0001% Compound No. 4, 48 hours
[17] = 0.001% Compound No. 4, 24 hours
[18] = 0.001% Compound No. 4, 48 hours

Molecule: CCCCCCCCCCCCCC(=O)NCCCN(C)C [Compound No. 4, N,N-Dimethyl-N′-tetradecanoyl-1,3-propylenediamine]
- Number of Surviving Organisms ([1]; 0.00001% Compound No. 4, 0 hrs): 3.2 × 10^2
- Number of Surviving Organisms ([1]; 0.00001% Compound No. 4, 4 hrs): 3.2 × 10^3
- Number of Surviving Organisms ([1]; 0.00001% Compound No. 4, 24 hrs): 3.2 × 10^3
- Number of Surviving Organisms ([1]; 0.00001% Compound No. 4, 48 hrs): 3.2 × 10^3
- Number of Surviving Organisms ([1]; 0.0001% Compound No. 4, 0 hrs): 3.2 × 10^2
- Number of Surviving Organisms ([1]; 0.0001% Compound No. 4, 4 hrs): 3.2 × 10^3
- Number of Surviving Organisms ([1]; 0.0001% Compound No. 4, 24 hrs): 2.1 × 10^3
- Number of Surviving Organisms ([1]; 0.0001% Compound No. 4, 48 hrs): 2.1 × 10^3
- Number of Surviving Organisms ([1]; 0.001% Compound No. 4, 0 hrs): 3.2 × 10^2
- Number of Surviving Organisms ([1]; 0.001% Compound No. 4, 4 hrs): 3.2 × 10^2
- Number of Surviving Organisms ([1]; 0.001% Compound No. 4, 24 hrs): 1.7 × 10^1
- Number of Surviving Organisms ([1]; 0.001% Compound No. 4, 48 hrs): <10
- Number of Surviving Organisms ([1]; 0.01% Compound No. 4, 0 hrs): 3.2 × 10^2
- Number of Surviving Organisms ([1]; 0.01% Compound No. 4, 4 hrs): <10
- Number of Surviving Organisms ([1]; 0.01% Compound No. 4, 24 hrs): <10
- Number of Surviving Organisms ([1]; 0.01% Compound No. 4, 48 hrs): <10
- Number of Surviving Organisms [2, 9]: 3.3 × 10^3
- Number of Surviving Organisms [2, 10]: 3.2 × 10^3
- Number of Surviving Organisms [2, 11]: 2.5 × 10^4
- Number of Surviving Organisms [2, 12]: 1.3 × 10^5
- Number of Surviving Organisms [2, 13]: 3.3 × 10^3
- Number of Surviving Organisms [2, 14]: 3.2 × 10^3
- Number of Surviving Organisms [2, 15]: 1.5 × 10^4
- Number of Surviving Organisms [2, 16]: 1.3 × 10^5
- Number of Surviving Organisms ([2]; 0.001% Compound No. 4, 0 hours): 3.3 × 10^3
- Number of Surviving Organisms ([2]; 0.001% Compound No. 4, 4 hours): 4.3 × 10^1
- Number of Surviving Organisms [2, 17]: 1.0 × 10^1
- Number of Surviving Organisms [2, 18]: 3.4 × 10^1
- Number of Surviving Organisms ([2]; 0.01% Compound No. 4, 0 hours): 3.3 × 10^3
- Number of Surviving Organisms ([2]; 0.01% Compound No. 4, 4 hours): <1
- Number of Surviving Organisms ([2]; 0.01% Compound No. 4, 24 hours): <1
- Number of Surviving Organisms ([2]; 0.01% Compound No. 4, 48 hours): <1
- Number of Surviving Organisms [3, 9]: 4.9 × 10^3
- Number of Surviving Organisms [3, 10]: 5.9 × 10^3
- Number of Surviving Organisms [3, 11]: 1.0 × 10^4
- Number of Surviving Organisms [3, 12]: 4.8 × 10^3
- Number of Surviving Organisms [3, 13]: 4.9 × 10^3
- Number of Surviving Organisms [3, 14]: 6.9 × 10^3
- Number of Surviving Organisms [3, 15]: 9.5 × 10^3
- Number of Surviving Organisms [3, 16]: 1.6 × 10^4
- Number of Surviving Organisms ([3]; 0.001% Compound No. 4, 0 hours): 4.9 × 10^3
- Number of Surviving Organisms ([3]; 0.001% Compound No. 4, 4 hours): 1.0 × 10^1
- Number of Surviving Organisms [3, 17]: <1
- Number of Surviving Organisms [3, 18]: <1
- Number of Surviving Organisms ([3]; 0.01% Compound No. 4, 0 hours): 4.9 × 10^3
- Number of Surviving Organisms ([3]; 0.01% Compound No. 4, 4 hours): <1
- Number of Surviving Organisms ([3]; 0.01% Compound No. 4, 24 hours): <1
- Number of Surviving Organisms ([3]; 0.01% Compound No. 4, 48 hours): <1

Molecule: polyhexamethylene biguanide [PHMB, reference compound]
- Number of Surviving Organisms ([1]; 0.02% PHMB, 0 hrs): 3.2 × 10^2
- Number of Surviving Organisms ([1]; 0.02% PHMB, 4 hrs): <10
- Number of Surviving Organisms ([1]; 0.02% PHMB, 24 hrs): <10
- Number of Surviving Organisms ([1]; 0.02% PHMB, 48 hrs): <10
- Number of Surviving Organisms ([2]; 0.02% PHMB, 0 hours): 3.3 × 10^3
- Number of Surviving Organisms ([2]; 0.02% PHMB, 4 hours): <1
- Number of Surviving Organisms ([2]; 0.02% PHMB, 24 hours): <1
- Number of Surviving Organisms ([2]; 0.02% PHMB, 48 hours): <1
- Number of Surviving Organisms ([3]; 0.02% PHMB, 0 hours): 4.9 × 10^3
- Number of Surviving Organisms ([3]; 0.02% PHMB, 4 hours): <1
- Number of Surviving Organisms ([3]; 0.02% PHMB, 24 hours): <1
- Number of Surviving Organisms ([3]; 0.02% PHMB, 48 hours): <1

Molecule: [H]/N=C(\N/C(=N/[H])NCCCCCCNC(=N)NC(=N)Nc1ccc(Cl)cc1)Nc1ccc(Cl)cc1 [Chlorhexidine, chlorhexidine, reference compound]
- Number of Surviving Organisms ([1]; 0.1% Chlorhexidine, 0 hrs): 3.2 × 10^2
- Number of Surviving Organisms ([1]; 0.1% Chlorhexidine, 4 hrs): <10
- Number of Surviving Organisms ([1]; 0.1% Chlorhexidine, 24 hrs): <10
- Number of Surviving Organisms ([1]; 0.1% Chlorhexidine, 48 hrs): <10
- Number of Surviving Organisms ([2]; 0.1% Chlorhexidine, 0 hours): 3.3 × 10^3
- Number of Surviving Organisms ([2]; 0.1% Chlorhexidine, 4 hours): <1
- Number of Surviving Organisms ([2]; 0.1% Chlorhexidine, 24 hours): <1
- Number of Surviving Organisms ([2]; 0.1% Chlorhexidine, 48 hours): <1
- Number of Surviving Organisms ([3]; 0.1% Chlorhexidine, 0 hours): 4.9 × 10^3
- Number of Surviving Organisms ([3]; 0.1% Chlorhexidine, 4 hours): <1
- Number of Surviving Organisms ([3]; 0.1% Chlorhexidine, 24 hours): <1
- Number of Surviving Organisms ([3]; 0.1% Chlorhexidine, 48 hours): <1
- Minimum Cysticidal Concentration [4]: 31.3 micrograms/milliliter
- Minimum Cysticidal Concentration [5]: 26.0 micrograms/milliliter
- Minimum Cysticidal Concentration [6]: 52.1 micrograms/milliliter
- Minimum Cysticidal Concentration [7]: 31.25 micrograms/milliliter
- Minimum Cysticidal Concentration [8]: 62.5 micrograms/milliliter
